Series [1] has as its system HUVECs. In words: HB-19 entry in HUVECs, confocal microscopy. It counts as cell-based, human. Conditions: 5 µM HB-19/Btn, 1 hour, 37°C. The method, then: Figure 3 Specific binding and entry of HB-19 in endothelial cells. (A) HB-19/Btn forms a stable complex with nucleolin expressed on the surface of HUVECs. Cells were incubated (45 min, 20°C) with 0, 1, 2, 4, 8 and 12 µM of HB-19/Btn before preparation of surface/cytoplasmic and nuclear extracts and recovery of surface nucleolin from the surface/cytoplasmic extracts as in Figure 2A. Material extracted from 2×10^7 and 2×10^6 cells was analyzed in panels Surface and Surface/Cytoplasm or Nucleus, respectively. Immunoblotting was with the anti-nucleolin mAb D3. (B) The specific binding of HB-19/Btn to HUVECs. The binding of 1 µM HB-19/Btn was studied at 4 °C by FACScan analysis. To show the specificity of binding, the reaction was carried out in the absence or presence of 50 µM HB-19, F3, or 9Arg peptides. The ordinate gives the relative cell number, whereas the abscissa gives the relative fluorescence intensity. (C) HB-19 entry in HUVECs. Cells were incubated with 5 µM of HB-19/Btn (1 hour, 37°C) before fixation in PFA (for surface binding) or PFA-Triton (for entry), respectively. Cells were then successively incubated with rabbit anti-biotin antibodies and goat Texas Red-conjugated anti-rabbit IgG, and processed for confocal microscopy. The scans of cells toward the middle cell layer are presented (with the DAPI stained nuclei). […]

A further series has as its system tumor cells. In words: Apoptosis in HB-19 treated cells. It is filed as cell-based. Conditions: not shown.
The test system of series [2] is HUVECs. Put plainly: HUVEC migration assay (modified Boyden chamber). It is filed as cell-based, human. As to conditions: VEGF165; 1 µM HB-19 or 0.1 µM mAb MS-3; 4 h, 37°C; two independent experiments. The method, then: Figure 6 Inhibition of in vitro and in vivo angiogenesis by HB-19. (A) HB-19 inhibits proliferation of HUVECs. Twenty-four hours after seeding HUVECs in 2% FBS, cells were stimulated by 0.25 nM VEGF165, in the absence or presence of 1 µM HB-19 or 0.1 µM anti-nucleolin mAb MS-3 as indicated. After 72 h, cell number was determined by crystal violet staining. The data are reported as the mean of triplicate samples. (B) HB-19 inhibits migration of HUVECs. Cell migration was studied using a modified Boyden chamber. Cells were incubated (4 h at 37°C) with VEGF165, HB-19, or anti-nucleolin mAb MS-3 as above. Cells that migrated through the pore to the lower filter surface were counted and are shown as number per microscopic field at ×100 magnification. […] Tubular network structures were quantified using phase contrast microscopy (×100). […] Quantification of endothelial cell invasion into the Matrigel was determined and is expressed as a mean of five fields per section from 3 Matrigel-plug sections per mouse. The results are expressed as the mean of five mice per group. […]
HUVEC migration assays were performed using a 24-well chemotaxis chamber (Transwell, Corning Costar, France). […] The cells that had migrated through the pores to the lower filter surface were counted in three random high power fields in each well (magnification 100×). […]

For series [3], the system named is Aortic endothelial (ABAE) cells. In words: Tubular network structure formation in collagen gel. It is filed as cell-based, bovine. The method, then: Figure 6 Inhibition of in vitro and in vivo angiogenesis by HB-19. (A) HB-19 inhibits proliferation of HUVECs. Twenty-four hours after seeding HUVECs in 2% FBS, cells were stimulated by 0.25 nM VEGF165, in the absence or presence of 1 µM HB-19 or 0.1 µM anti-nucleolin mAb MS-3 as indicated. After 72 h, cell number was determined by crystal violet staining. The data are reported as the mean of triplicate samples. (B) HB-19 inhibits migration of HUVECs. Cell migration was studied using a modified Boyden chamber. Cells were incubated (4 h at 37°C) with VEGF165, HB-19, or anti-nucleolin mAb MS-3 as above. Cells that migrated through the pore to the lower filter surface were counted and are shown as number per microscopic field at ×100 magnification. The data are the mean of three independent high-power fields/well performed in duplicate in two independent experiments. […] Aortic endothelial (ABAE) cells in the absence or presence of 3 nM PTN, 0.5 nM VEGF165, and 3 nM FGF-2 were seeded on a three-dimensional collagen gel in complete medium. Treatment with HB-19 or anti-nucleolin mAb MS-3 was for 3 days after cell plating. Tubular network structures were quantified using phase contrast microscopy (×100). The ordinate gives the number of pseudocapillaries corresponding to the means of three randomly chosen fields/well from three wells. (D) HB-19 inhibits […] angiogenic activity of growth factors in a Matrigel plug model. Liquid Matrigel was subcutaneously injected into the flank of Swiss mice in the absence or presence of 5 nM PTN, 10 nM FGF-2, and 1 µM HB-19. Quantification of endothelial cell invasion into the Matrigel was determined and is expressed as a mean of five fields per section from 3 Matrigel-plug sections per mouse. The results are expressed as the mean of five mice per group. Statistical significance: *p<0.05, **p<0.01, ***p<0.001.
Three-dimensional collagen gels were prepared following the procedure of Montesano with minor modifications. […] Tubular network structures were then quantified using phase contrast microscopy at 100× magnification. […]

The test system of a further series is athymic nude mice. Conditions: mouse, in vivo.
A further series concerns nucleolin. As to conditions: cited from earlier work. From the text: HB-19 presents pentavalently the tripeptide Kψ(CH2N)PR in which the reduced peptide bond provides high stability against serum proteases (Figure 1). HB-19 forms a stable complex with the cell-surface expressed nucleolin and is internalized by an active process. This le ... || The interaction of HB-19 with surface nucleolin was investigated using human breast cancer MDA-MB-231 tumor cells and human umbilical vein endothelial cells (HUVECs). […] Similarly, HB-19/Btn binds and forms a stable complex with surface nucleolin in a dose-dependent manner in both types of cell ... || Previously, guanosine-rich phosphodiester oligonucleotides (referred to as GROs) and endostatin have been reported to exert antitumoral and antiangiogenic activity, respectively, through interaction with surface nucleolin [21], [41], [42]. […] At 20°C, GRO ... || (+ 1 further places)

Procedure for athymic nude mice: Inhibitory action of HB-19 was tested against established human breast carcinoma xenografts in the athymic nude mice. For this purpose, mice were inoculated subcutaneously with MDA-MB-231 or MDA-MB-435 cells that proliferate into palpable tumors in 2 weeks. Tumor bearing mice were then treated with HB-19 (Figure 8A, B) or control antitumoral reagents such as tamoxifen and 5-fluouracil (5-FU). The mice were administered 3 times per week with various drugs, during which time tumor-volume was measured by a caliper every third or fourth day. At the end of experiment, tumor-bearing mice were sacrificed, blood was collected for analysis, and the liver, lungs and spleen were removed for histological analysis.
4-week old female athymic nude Mice (Janvier, Le Genest St Isle, France) were injected subcutaneously in the right flank (MDA-MB-231) or in the mammary fat pad (MDA-MB-435) in 0.1 ml PBS. When the tumor reached about 40 mm^3, the mice were separated randomly in several groups. Administration of HB-19 in PBS (5 mg/kg body weight) was either by intraperitoneal, subcutaneous or peritumoral injections three times per week. Tumor volume was measured along two major axes with calipers. Tumor volume (mm^3) was calculated as follows: V = 4/3×π×R1 ^2×R2, where R1 is radius 1, R2 is radius 2 and R1<R2.

Consider “pseudo-tripeptide Lysψ(CH2N)-Pro-Arg coupled to a template (H2NLys-Lys-Lys-Gly-Pro-Lys-Glu-Lys-AhxCONH2) [HB-19, pseudopeptide presenting pentavalently the pseudo-tripeptide Lysψ(CH2N)-Pro-Arg coupled to a template]”, for which the “internalization and subcellular localization” value with HUVECs [1] was “internalized and is concentrated in the cytoplasm without translocation into the nucleus”. The apoptosis entry in the series with tumor cells is given as “not observed”. In addition, in the series on HUVECs [2], the “inhibition of HUVEC migration” value was “inhibited dramatically both of these events down to levels comparable to that of unstimulated cells”. Besides, in series [3] (0.5 nM VEGF165, treatment 3 days), the “capillary-like structure formation, VEGF induced” value is “inhibited formation of capillary-like branched structures”. Also, the “tubular network formation, FGF-2 induced” value in series [3] (3 nM FGF-2, treatment 3 days) was “inhibits tubular network structure formation in collagen”. Also, the “capillary-like structure formation, PTN induced” value in series [3] (3 nM PTN, treatment 3 days) was “inhibited formation of capillary-like branched structures”. Moreover, in the series on athymic nude mice, the “effect on body weight and blood cell counts” value is “no effect on body weight and on blood cell counts”; the “effect on tissues at autopsy” value was “no apparent effect on various tissues compared to control mice”. In the series on nucleolin, the “binding site on nucleolin” value is “binds the C-terminal RGG domain of cell-surface expressed nucleolin” and the “heparan sulfate proteoglycan requirement of binding to surface nucleolin” value is “endostatin but not HB-19 binding to surface nucleolin requires heparan sulfate proteoglycans”. Moreover, the “reversibility of binding to surface nucleolin” value in the series on nucleolin (physiological conditions) is reported as “bind surface nucleolin in an irreversible manner”.
